Measured values as given in article PMC10761119, “Phosphorylation-state dependent intraneuronal sorting of Aβ differentially impairs autophagy and the endo-lysosomal system” (Autophagy, 2023).

Tested on: primary cortical neurons
Assay: Lysosome enrichment, immunoisolation of LAMP2- or LC3-positive vesicles and Aβ immunoprecipitation with western immunoblotting
Type: cell-based, mouse
Conditions: Aβ 500 nM, 4 h; for Intraneuronal accumulation of Aβ peptides by immunoprecipitation of total Aβ (rank order): IP from PNS with 4G8; for Aβ levels in the lysosomal/late endosomal enriched fraction (16,000 g pellet): immunoblot, two independent experiments; for Aβ in LAMP2-immunoisolated lysosomes: compared to p-Ser8Aβ
Method: Cells after respective washing steps were collected by scraping and homogenized in isotonic buffer (10 mM Tris-HCl, pH 7.4, 1 mM MgCl2, 0.1 mM EGTA, 0.25 M sucrose) containing protease and phosphatase inhibitors, by repeated suspension through a 23 G × 1” needle. Cell homogenate was centrifuged at 2,000 g for 5 min. Pellet (nuclear material) was discarded. The post-nuclear supernatant was centrifuged at 16,100 g for 15 min. Pellet comprised of lysosome enriched material and the supernatant was used as the crude lysosome depleted material. Pellet was resuspended in STEN-lysis buffer and the lysosome enriched fraction was the supernatant collected after centrifugation at 16,100 g for 15 min. Supernatant was further centrifuged at 16,100 g for 60 min. The resultant pellet contained lysosome depleted material and supernatant was crude cytosolic material. The pellet was re-homogenized in STEN-lysis buffer and the supernatant was the lysosome depleted fraction collected post-centrifugation at 16,100 g for 15 min.
Cells after respective washing steps were collected by scraping and homogenized in either isotonic buffer or hypotonic D buffer containing protease and phosphatase inhibitors by repeated suspension through a 23 G × 1” needle. Cell homogenate was centrifuged at 2,000 g for 5 min and the nuclear material (pellet) was discarded. The post-nuclear supernatant was then used for IP experiments. Sepharose G beads (ThermoFisher Scientific, 101242) were incubated with PNS material at RT for 1 h, beads were further pelleted down and boiled in 1% SDS in 50 mM Tris-HCl, pH 7.6 along with sample buffer, used as bead control. Supernatant exposed to beads only were devoid of nonspecific binding substrates and was used further as loading control. New set of beads were precoated with respective primary antibodies for 1 h and then incubated with the PNS solutions overnight at 4°C. Beads were pelleted down and boiled with 1% SDS in 50 mM Tris-HCl along with sample buffer as the IP eluate.
For different cellular fractions prepared as described earlier, the protein content was estimated using the standard Pierce™ BCA protein assay kit (ThermoFisher Scientific, 23225). For direct comparison between the samples, equal amount of protein was loaded. Samples were dissolved in Laemmli buffer and were boiled at 95°C for 5 min. They were loaded on a precast 4–12% NuPage® Bis-Tris gels (Life technologies, NP033–5/6, WG140–2/3). Gels and prestained protein molecular weight markers were purchased from Life technologies. The separated proteins were electro-transferred onto a 0.2-μm nitrocellulose (NT) membrane (Amersham, 1060001) for 1 h 45 min. After blotting, the NT membranes were boiled in PBS for 10 min. Ponceau staining was done to monitor protein loading of samples. The blots were then incubated in 5% skim milk in TBS-T (TBS [50 mM Tris-HCl, pH 7.5, 150 mM NaCl] containing 0.1% Tween 20 [Sigma Aldrich, P1379]) for 1 h at RT. Blots were incubated overnight at 4°C in the primary antibody solution (respective dilutions in TBS-T, Table 1). Blots were washed and incubated with appropriate secondary antibodies conjugated either with HRP or fluorescent dyes for 1 h. Blots were developed either by enhanced chemiluminescence (ECL) or fluorescence imaging. For ECL imaging, blots were incubated with equivalent mixtures of ECL solution A (0.1 M Tris, 0.4 mM coumaric acid, 2.5 mM luminol, pH 8.5) and B (0.1 M Tris, 0.018% H2O2) mixed prior to application on blots. Signals were detected with an ECL imager (Bio-Rad, Germany). For fluorescence detection, blots were imaged on a Li-COR imaging station (Li-COR Biosciences, Germany). Blots were presented as is or with minimal linear contrast enhancement (Figure 5B–D; S1; S3E; S5E, S8E). Quantification of band signals was done using ImageJ – Gel processing module or Image Studio processing software (LiCOR Biosciences, Germany). […]

| Substance | Intraneuronal accumulation of Aβ peptides by immunoprecipitation of total Aβ (rank order) | Aβ levels in the lysosomal/late endosomal enriched fraction (16,000 g pellet) | Aβ in LAMP2-immunoisolated lysosomes (western immunoblot 82E1) | Aβ in LC3 immunoisolated vesicles (western immunoblot 82E1) |
| --- | --- | --- | --- | --- |
| non-phosphorylated amyloid-β [npAβ, reference compound] | p-Ser8Aβ > p-Ser26Aβ > npAβ | moderate levels | strongly enriched | – |
| amyloid-β phosphorylated at serine residue 26 [p-Ser26Aβ] | p-Ser8Aβ > p-Ser26Aβ > npAβ | high levels | strongly enriched | – |
| amyloid-β phosphorylated at serine residue 8 [p-Ser8Aβ] | p-Ser8Aβ > p-Ser26Aβ > npAβ | only marginal levels | – | high levels |
